In patent US20230079045A1 (priority 2019, published 2023):
Like-named read-outs stand apart in the source and are kept apart here.

What was measured:
Assay type in all cases: cell-based, influenza virus
IFVA/Mal/302/54 = experiment: cytopathic effect (CPE) antiviral test in MDCK cells, IFVA/Mal/302/54
IFVA/Weiss/43 = experiment: cytopathic effect (CPE) antiviral test in MDCK cells, IFVA/Weiss/43
IFV A/PR/8/34 = experiment: cytopathic effect (CPE) antiviral test in MDCK cells, IFV A/PR/8/34; settings: unidentified influenza virus, PR/8, MDCK, 120 h, read-out: EC50(IFV A/PR/8/34)
[1] = unidentified influenza virus, MDCK, 120 h, read-out: EC50(IFVA/Mal/302/54), MDCK cells, CPE method, CCK-8 cell viability, 5 days
[2] = read-out: EC50(IFVA/Weiss/43), MDCK cells, CPE method, CCK-8 cell viability, 5 days
[3] = unidentified influenza virus, MDCK, 120 h, read-out: EC50(IFVA/Weiss/43), MDCK cells, CPE method, CCK-8 cell viability, 5 days

Row | Compound | EC50 (IFVA/Mal/302/54; [1]) [nM] | EC50 (IFVA/Weiss/43; [3]) [nM] | EC50 (IFV A/PR/8/34) [nM] | also measured
1 | Cn1nnc(C(c2ccccc2)N2CCN(C(=O)c3cc(-c4nc5cc(O[C@H]6CCOC6)ccc5o4)ccn3)CC2)n1 (stereo partly drawn) [Compound 38, (4-((2-methyl-2H-tetrazol-5-yl)(phenyl)methyl)piperazin-1-yl)(4-(5-(((S)-tetrahydrofuran-3-yl)oxy)benzo[d]oxazol-2-yl)pyridin-2-yl)methanone] | 18 | – | – | EC50 (IFVA/Weiss/43; [2]): 20 nM
2 | O=C(Nc1ccc2oc(-c3ccnc(C(=O)N4CCN(C(c5ccccc5)c5nnn(C(F)F)n5)CC4)c3)nc2c1)C1CC1(F)F (single isomer, unassigned) [Compound 82, (R/S)—N-(2-(2-(4-((R/S)-(2-(difluoromethyl)-2H-tetrazol-5-yl)(phenyl)methyl)piperazine-1-carbonyl)pyridin-4-yl)benzo[d]oxazol-5-yl)-2,2-difluorocyclopropane-1-carboxamide] | 11 | 7 | – | –
3 | O=C1CCCN1c1ccc2oc(-c3ccnc(C(=O)N4C5CCC4CN(C(c4ccccc4)c4nnn(C(F)F)n4)C5)c3)nc2c1 (centres unmarked) [Compound 176, 1-(2-(2-(3-((2-(difluoromethyl)-2H-tetrazol-5-yl)(phenyl)methyl)-3,8-diazabicyclo[3.2.1]octane-8-carbonyl)pyridin-4-yl)benzo[d]oxazol-5-yl)pyrrolidin-2-one] | 21 | 33 | – | –
4 | Cn1nnc(C(c2ccccc2)N2CCN(C(=O)c3cc(-c4nc5cc(OC6CCOC6)ccc5o4)ccn3)CC2)n1 (stereo in doubt) [Compound 43, (4-((2-methyl-2H-tetrazol-5-yl)(phenyl)methyl)piperazin-1-yl)(4-(5-(((R)-tetrahydrofuran-3-yl)oxy)benzo[d]oxazol-2-yl)pyridin-2-yl)methanone] | – | – | – | EC50 (IFVA/Mal/302/54; read-out: EC50(IFVA/Mal/302/54), MDCK cells, CPE method, CCK-8 cell viability, 5 days): 10 nM; EC50 (IFVA/Weiss/43; [2]): 57 nM
5 | O=C(Nc1ccc2oc(-c3ccnc(C(=O)N4CCN(C(c5ccccc5)c5nnn(C(F)F)n5)CC4)c3)nc2c1)[C@@H]1CC1(F)F (mixture of isomers) [Compound 29, (1S)—N-(2-(2-(4-((2-(difluoromethyl)-2H-tetrazol-5-yl)(phenyl)methyl)piperazine-1-carbonyl)pyridin-4-yl)benzo[d]oxazol-5-yl)-2,2-difluorocyclopropane-1-carboxamide] | 22 | 4 | – | –
6 | CC(=O)Nc1ccc2oc(-c3ccnc(C(=O)N4CCN(C(c5ccccc5)c5nnn(C)n5)[C@H](C)C4)c3)nc2c1 (mixture of isomers) [Compound 16a, N-(2-(2-((3R)-3-methyl-4-((2-methyl-2H-tetrazol-5-yl)(phenyl)methyl)piperazine-1-carbonyl)pyridin-4-yl)benzo[d]oxazol-5-yl)acetamide] | > 10000 | 7160 | – | –
7 | CC(=O)Nc1ccc2oc(-c3ccnc(C(=O)N4CC5CC(C4)N5C(c4ccccc4)c4nnn(C)n4)c3)nc2c1 (centres unmarked) [Compound 23, N-(2-(2-(6-((2-methyl-2H-tetrazol-5-yl)(phenyl)methyl)-3,6-diazabicyclo[3.1.1]heptane-3-carbonyl)pyridin-4-yl)benzo[d]oxazol-5-yl)acetamide] | > 10000 | > 10000 | – | –
8 | CC(=O)Nc1ccc2oc(-c3ccnc(C(=O)N4CCN(C(c5cccc(F)c5)c5nnn(C)n5)CC4)c3)nc2c1 (centres unmarked) [Compound 11, N-(2-(2-(4-((3-fluorophenyl)(2-methyl-2H-tetrazol-5-yl)methyl)piperazine-1-carbonyl)pyridin-4-yl)benzo[d]oxazol-5-yl)acetamide] | 260 | 173 | – | –
9 | O=C(c1cc(-c2nc3cc(N4CCCC4=O)ccc3o2)ccn1)N1CCN(C(c2ccccc2)c2nnn(C(F)F)n2)CC1 (centres unmarked) [Compound 37, 1-(2-(2-(4-((2-(difluoromethyl)-2H-tetrazol-5-yl)(phenyl)methyl)piperazine-1-carbonyl)pyridin-4-yl)benzo[d]oxazol-5-yl)pyrrolidin-2-one] | 22 | 17 | – | –
10 | Cn1ccnc1-c1ccc2oc(-c3ccnc(C(=O)N4CCN(C(c5ccccc5)c5nnn(C(F)F)n5)CC4)c3)nc2c1 (racemic) [Compound 88, (R/S)-(4-((2-(difluoromethyl)-2H-tetrazol-5-yl)(phenyl)methyl)piperazin-1-yl)(4-(5-(1-methyl-1H-imidazol-2-yl)benzo[d]oxazol-2-yl)pyridin-2-yl)methanone] | 2 | 2 | – | –
11 | CC(=O)Nc1ccc2oc(-c3ccnc(C(=O)N4CCN(C(c5nnn(C)n5)c5ccccc5F)CC4)c3)nc2c1 (centres unmarked) [Compound 9, N-(2-(2-(4-((2-fluorophenyl)(2-methyl-2H-tetrazol-5-yl)methyl)piperazine-1-carbonyl)pyridin-4-yl)benzo[d]oxazol-5-yl)acetamide] | 214 | 126 | – | –
12 | O=C(c1cc(-c2nc3cc(-c4cscn4)ccc3o2)ccn1)N1CCN(C(c2ccccc2)c2nnn(C(F)F)n2)CC1 (racemic) [Compound 110, (R/S)-(4-((2-(difluoromethyl)-2H-tetrazol-5-yl)(phenyl)methyl)piperazin-1-yl)(4-(5-(thiazol-4-yl)benzo[d]oxazol-2-yl)pyridin-2-yl)methanone] | 3 | 3 | – | –
13 | O=C(c1cc(-c2nc3cc(-c4cnn(C5CC5)c4)ccc3o2)ccn1)N1CCN(C(c2ccccc2)c2nnn(C(F)F)n2)CC1 (racemic) [Compound 148, (R/S)-(4-(5-(1-cyclopropyl-1H-pyrazol-4-yl)benzo[d]oxazol-2-yl)pyridin-2-yl)(4-((2-(difluoromethyl)-2H-tetrazol-5-yl)(phenyl)methyl)piperazin-1-yl)methanone] | – | – | 33 | –
14 | Cc1ncc(-c2ccc3oc(-c4ccnc(C(=O)N5CCN(C(c6ccccc6)c6nnn(C(F)F)n6)CC5)c4)nc3c2)n1C (racemic) [Compound 162, (R/S)-(4-((2-(difluoromethyl)-2H-tetrazol-5-yl)(phenyl)methyl)piperazin-1-yl)(4-(5-(1,2-dimethyl-1H-imidazol-5-yl)benzo[d]oxazol-2-yl)pyridin-2-yl)methanone] | – | – | 3 | –
15 | CCn1cc(-c2ccc3oc(-c4ccnc(C(=O)N5CCN(C(c6ccccc6)c6nnn(C(F)F)n6)CC5)c4)nc3c2)cn1 (racemic) [Compound 127, (R/S)-(4-((2-(difluoromethyl)-2H-tetrazol-5-yl)(phenyl)methyl)piperazin-1-yl)(4-(5-(1-ethyl-1H-pyrazol-4-yl)benzo[d]oxazol-2-yl)pyridin-2-yl)methanone] | – | – | 4 | –
16 | CC(C)(F)C(=O)Nc1ccc2oc(-c3ccnc(C(=O)N4CCC(C(c5ccccc5)n5nnc(C(F)F)n5)CC4)c3)nc2c1 (racemic) [Compound 164, (R/S)—N-(2-(2-(4-((5-(difluoromethyl)-2H-tetrazol-2-yl)(phenyl)methyl)piperidine-1-carbonyl)pyridin-4-yl)benzo[d]oxazol-5-yl)-2-fluoro-2-methylpropanamide] | – | – | 13 | –
17 | O=C(c1cc(-c2nc3cc(-c4cnoc4)ccc3o2)ccn1)N1CCN(C(c2ccccc2)c2nnn(C(F)F)n2)CC1 (racemic) [Compound 174, (R/S)-(4-((2-(difluoromethyl)-2H-tetrazol-5-yl)(phenyl)methyl)piperazin-1-yl)(4-(5-(isoxazol-4-yl)benzo[d]oxazol-2-yl)pyridin-2-yl)methanone] | – | – | 15 | –
18 | O=C(c1cc(-c2nc3cc(NC(=O)C4(F)CC4)ccc3o2)ccn1)N1CCN(C(c2ccccc2)c2nnn(C(F)F)n2)CC1 (racemic) [Compound 129] | – | – | 12 | –
19 | Cc1nnn(C(c2ccccc2)C2CCN(C(=O)c3cc(-c4nc5cc(-c6cncn6C)ccc5o4)ccn3)CC2)n1 (racemic) [Compound 167, (R/S)-(4-(5-(1-methyl-1H-imidazol-5-yl)benzo[d]oxazol-2-yl)pyridin-2-yl)(4-((5-methyl-2H-tetrazol-2-yl)(phenyl)methyl)piperidin-1-yl)methanone] | – | – | 5 | –
20 | CNCc1nnn(C(c2ccccc2)C2CCN(C(=O)c3cc(-c4nc5cc(NC(=O)[C@@H]6C[C@@H]6F)ccc5o4)ccn3)CC2)n1 (mixture of isomers) [Compound 211, (1S,2S)-2-fluoro-N-(2-(2-(4-((R/S)-(5-((methylamino)methyl)-2H-tetrazol-2-yl)(phenyl)methyl)piperidine-1-carbonyl)pyridin-4-yl)benzo[d]oxazol-5-yl)cyclopropane-1-carboxamide] | – | – | 0.3 | –
21 | CC(C)(F)C(=O)Nc1ccc2oc(-c3ccnc(C(=O)N4CCN(C(c5ccccc5)c5nnn(C(F)F)n5)CC4)c3)cc2c1 (racemic) [Compound 141, (R/S)—N-(2-(2-(4-((2-(difluoromethyl)-2H-tetrazol-5-yl)(phenyl)methyl)piperazine-1-carbonyl)pyridin-4-yl)benzofuran-5-yl)-2-fluoro-2-methylpropanamide] | – | – | 16 | –
22 | CC(C)n1cc(-c2ccc3oc(-c4ccnc(C(=O)N5CCN(C(c6ccccc6)c6nnn(C(F)F)n6)CC5)c4)nc3c2)cn1 (racemic) [Compound 146, (R/S)-(4-((2-(difluoromethyl)-2H-tetrazol-5-yl)(phenyl)methyl)piperazin-1-yl)(4-(5-(1-isopropyl-1H-pyrazol-4-yl)benzo[d]oxazol-2-yl)pyridin-2-yl)methanone] | – | – | 26 | –
23 | [2H]C([2H])([2H])n1nnc(C(c2ccccc2)N2CCN(C(=O)c3cc(-c4nc5cc(NC(=O)[C@@H]6C[C@@H]6F)ccc5o4)ccn3)CC2)n1 (stereo partly drawn) [Compound 178, (1S,2S)-2-fluoro-N-(2-(2-(4-((R)-(2-Deuteratedmethyl-2H-tetrazol-5-yl)(phenyl)methyl)piperazine-1-carbonyl)pyridin-4-yl)benzo[d]oxazol-5-yl)cyclopropanecarboxamide] | – | – | 7 | –
